Assays:
in vitro = in vitro ADME
Description: […]. […] […]. […] […]

CYP3A4 = assay: PBPK elimination inputs (retrograde model, fm); parameters: species or system human; settings: PBPK input
CYP2C8 = target: T1, CYP2C8 (Homo sapiens, UniProt P10632); assay: Reversible CYP inhibition in human liver microsomes
T1 sequence (P10632 1-490): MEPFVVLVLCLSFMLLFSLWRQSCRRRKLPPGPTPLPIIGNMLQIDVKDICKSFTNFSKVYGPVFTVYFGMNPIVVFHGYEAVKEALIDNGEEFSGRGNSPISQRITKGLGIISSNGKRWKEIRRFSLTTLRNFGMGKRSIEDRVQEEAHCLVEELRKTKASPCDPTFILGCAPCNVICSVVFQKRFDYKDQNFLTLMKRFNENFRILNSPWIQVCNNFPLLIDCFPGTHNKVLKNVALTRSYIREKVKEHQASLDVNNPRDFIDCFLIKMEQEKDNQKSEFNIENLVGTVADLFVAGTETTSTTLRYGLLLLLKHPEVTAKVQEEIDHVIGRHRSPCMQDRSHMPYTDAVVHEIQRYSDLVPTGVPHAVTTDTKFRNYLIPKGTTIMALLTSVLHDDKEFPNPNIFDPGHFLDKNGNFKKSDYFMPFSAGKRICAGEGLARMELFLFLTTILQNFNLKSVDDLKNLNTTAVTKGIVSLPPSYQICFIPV

P‐glycoprotein (P‐gp) = target: T2, P‐glycoprotein (P‐gp) (Homo sapiens, UniProt P08183); format: in vitro ADME
T2 construct: Caco-2 cells were obtained from American Type Culture Collection; host or cells: Caco-2 cell monolayers
Procedure: (§1) Prior to the experiments,
(§2) The cells were cultured at […]
(§3) measuring the trans-epithelial electrical resistance (TEER) value. The TEER values of cell […]
(§4) The volumes of the replaced […]
(§5) shaker at 37°C until use.
(§6) Apical to Basal Transport (A to B).
(§7) (soticlestat or quinidine) were added.
(§8) After incubation for 1 hour, 100 μL […]
(§9) radioactivity using an LSC. […]
(§10) collected and measured for the radioactivity using an LSC.
(§11) Basal to Apical Transport (B to A).
(§12) (soticlestat or quinidine) were added. […] Then […]
(§13) cells were incubated at 37°C.
(§14) HBSS solution were added to the apical side.

P‐gp = target: T3, P‐gp (Homo sapiens, UniProt P08183); format: in vitro ADME
T3 construct: Caco-2 cells were obtained from American Type Culture Collection; host or cells: Caco-2 cell monolayers
Procedure: as §1, §2, §3, §4, §5, §6, §7, §8, §9, §10, §11, §12, §13, §14

UGT1A9 [1] = target: T4, UGT1A9 (Homo sapiens, UniProt O60656); settings: both, 20 min, pH 7.4
T4 sequence (O60656 26-530): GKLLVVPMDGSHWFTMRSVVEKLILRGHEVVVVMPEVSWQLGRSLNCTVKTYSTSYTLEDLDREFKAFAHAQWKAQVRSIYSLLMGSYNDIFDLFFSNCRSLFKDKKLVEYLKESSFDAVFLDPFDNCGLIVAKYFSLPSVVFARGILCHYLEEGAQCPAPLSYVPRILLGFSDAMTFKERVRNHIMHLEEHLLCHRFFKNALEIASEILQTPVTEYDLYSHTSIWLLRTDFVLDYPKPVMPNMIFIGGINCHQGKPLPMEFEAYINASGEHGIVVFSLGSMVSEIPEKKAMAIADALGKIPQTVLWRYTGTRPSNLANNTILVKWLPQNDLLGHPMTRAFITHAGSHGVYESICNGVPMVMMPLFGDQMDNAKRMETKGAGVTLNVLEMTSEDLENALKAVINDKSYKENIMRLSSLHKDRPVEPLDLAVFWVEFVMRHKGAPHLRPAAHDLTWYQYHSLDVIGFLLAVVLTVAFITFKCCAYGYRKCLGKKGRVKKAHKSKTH

CYP2B6 = settings: hepatocytes
OATP1B1 = target: T5, OATP1B1 (Homo sapiens, UniProt Q9Y6L6)
T5 sequence (Q9Y6L6 1-691): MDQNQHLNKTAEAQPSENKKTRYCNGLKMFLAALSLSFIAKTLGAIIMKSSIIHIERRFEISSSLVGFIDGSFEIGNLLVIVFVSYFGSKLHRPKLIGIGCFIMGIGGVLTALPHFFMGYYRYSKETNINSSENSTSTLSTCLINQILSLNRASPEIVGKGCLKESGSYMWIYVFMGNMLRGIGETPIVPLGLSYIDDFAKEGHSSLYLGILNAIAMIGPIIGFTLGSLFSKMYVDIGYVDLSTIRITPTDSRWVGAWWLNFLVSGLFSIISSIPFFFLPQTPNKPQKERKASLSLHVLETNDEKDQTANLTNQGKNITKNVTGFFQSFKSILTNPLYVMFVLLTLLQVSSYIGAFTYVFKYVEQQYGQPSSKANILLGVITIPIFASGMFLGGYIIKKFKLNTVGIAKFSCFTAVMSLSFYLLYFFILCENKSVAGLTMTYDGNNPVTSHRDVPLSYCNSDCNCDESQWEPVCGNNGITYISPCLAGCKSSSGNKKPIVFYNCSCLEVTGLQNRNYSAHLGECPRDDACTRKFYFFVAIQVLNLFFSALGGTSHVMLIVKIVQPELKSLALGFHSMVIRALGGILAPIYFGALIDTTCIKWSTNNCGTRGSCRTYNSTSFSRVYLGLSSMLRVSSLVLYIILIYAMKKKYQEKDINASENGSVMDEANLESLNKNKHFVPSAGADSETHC

UGT1A9 [2] = target: T4, UGT1A9; parameters: method as in PMID 38123352; settings: cited from earlier work
[3] = test system: cholesterol 24‐hydroxylase (CH24H); settings: 100, 200, and 300 mg BID, cited from earlier work
[4] = Fig 2C, soticlestat 300 mg alone or with mefenamic acid, n = 14

T2 sequence (P08183 whole entry): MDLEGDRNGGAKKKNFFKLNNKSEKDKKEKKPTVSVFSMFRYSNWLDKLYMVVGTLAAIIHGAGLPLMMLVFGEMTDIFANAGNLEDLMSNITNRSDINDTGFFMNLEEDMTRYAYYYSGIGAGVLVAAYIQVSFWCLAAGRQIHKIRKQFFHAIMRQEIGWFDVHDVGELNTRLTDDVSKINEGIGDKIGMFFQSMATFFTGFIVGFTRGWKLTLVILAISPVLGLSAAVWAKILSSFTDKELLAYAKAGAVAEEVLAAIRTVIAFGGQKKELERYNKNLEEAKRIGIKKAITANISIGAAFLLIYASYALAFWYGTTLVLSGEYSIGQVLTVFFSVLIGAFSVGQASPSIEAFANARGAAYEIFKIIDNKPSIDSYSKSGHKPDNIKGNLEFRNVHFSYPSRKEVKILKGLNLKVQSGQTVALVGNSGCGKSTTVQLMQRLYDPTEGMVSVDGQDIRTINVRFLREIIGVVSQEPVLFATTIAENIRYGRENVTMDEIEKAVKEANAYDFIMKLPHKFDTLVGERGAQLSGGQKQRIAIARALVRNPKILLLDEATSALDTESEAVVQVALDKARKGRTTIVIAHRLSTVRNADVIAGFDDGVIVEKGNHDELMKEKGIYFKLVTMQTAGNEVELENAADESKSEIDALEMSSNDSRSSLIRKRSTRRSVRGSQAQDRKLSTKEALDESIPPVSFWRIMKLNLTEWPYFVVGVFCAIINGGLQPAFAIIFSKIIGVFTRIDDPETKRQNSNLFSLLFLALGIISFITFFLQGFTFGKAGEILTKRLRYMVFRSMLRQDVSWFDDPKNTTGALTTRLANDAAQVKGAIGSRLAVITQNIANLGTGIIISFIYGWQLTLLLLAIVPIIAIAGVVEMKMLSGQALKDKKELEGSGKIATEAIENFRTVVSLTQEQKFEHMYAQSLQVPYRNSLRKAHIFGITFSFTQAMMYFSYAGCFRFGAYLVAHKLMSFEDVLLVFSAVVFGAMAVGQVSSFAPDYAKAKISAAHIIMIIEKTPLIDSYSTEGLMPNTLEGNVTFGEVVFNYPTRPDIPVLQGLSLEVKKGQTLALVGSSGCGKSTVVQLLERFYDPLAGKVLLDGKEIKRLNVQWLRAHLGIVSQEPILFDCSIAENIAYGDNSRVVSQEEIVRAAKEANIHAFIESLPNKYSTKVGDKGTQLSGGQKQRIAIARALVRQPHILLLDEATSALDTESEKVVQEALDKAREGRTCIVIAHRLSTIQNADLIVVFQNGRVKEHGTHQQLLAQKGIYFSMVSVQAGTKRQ
T3 sequence (P08183 whole entry): as above

## O=C(c1cccnc1-c1ccncc1)N1CCC(O)(Cc2ccccc2)CC1 [Soticlestat]
In vitro
  Main binding protein: AAG
  fraction unbound: 0.066
CYP3A4
  fmCYP3A: 0.1
CYP2C8
  Ki: 14.5 µM
CYP2C8; human
  fumic: 0.98
CYP2C8; microsomes
  inhibition of CYP2C8: low double‐digit micromolar values
Major CYP enzymes
  time‐ or metabolism‐dependent inhibition: did not exhibit time‐ or metabolism‐dependent inhibition
P‐glycoprotein (P‐gp)
  IC50: 81.1 µM
  Ki: 80 µM
P‐gp
  substrate for P‐gp: not a substrate
UGT1A9 [1]
  fm of total UGT mediated glucuronidation via UGT1A9: ~10%
CYP2B6
  induction of CYP2B6: nor did soticlestat induce
OATP1B1
  inhibition of OATP1B1: did not demonstrate clinically relevant inhibition
UGT1A9 [2]; [4]
  AUC0-inf observed: 1526 ng·h/mL
  Cmax observed: 1414 ng/mL
UGT1A9 [2]; with mefenamic acid
  effect on soticlestat exposure: did not affect soticlestat exposure
[3]; steady state
  24HC reduction: ≥ 60%
[3]
  steady‐state enzyme occupancy: ≥ 65%

Reference: PMC12044326 (Clinical Pharmacology in Drug Development, 2025)
